Reference: PMC4604124, “In Vitro Characterization of the Pharmacological Properties of the Anti-Cancer Chelator, Bp4eT, and Its Phase I Metabolites” (PLoS ONE, 2015)
Several values for one entry are separate records, joined by “and”; a condition that tells them apart may be missing. Equal values may be shown once. Read-outs that look alike come from different tables or passages of the source.

Assays:
[1] = tested on: HCT116 human colorectal carcinoma cells; test: MTT cytotoxicity assay, HCT116 cells; type: cell-based; details: for IC50: MTT
Procedure: (§1) For cytotoxicity experiments, cancer cells were seeded at a density of 5,000 (MCF-7), 10,000 (HL-60) or 2,000 cells/well (HCT116 and A549) in 96-well plates (TPP) for 24 h/37°C prior to the addition of examined agents. The non-cancerous cells, 3T3 and H9c2 cells, were cultured for 24 h/37°C in 96-well plates at a density of 10,000 cells/well, the medium was then changed to serum- and pyruvate-free DMEM (Sigma-Aldrich) and incubated with the cells for another 24 h/37°C. The cytotoxic effects of Bp4eT and its metabolites were studied at different concentrations after a 72 h/37°C incubation. In order to aid the dissolution of the lipophilic ligands, 0.1% dimethyl sulfoxide (v/v) (DMSO; Sigma-Aldrich) was present in the culture medium of all groups. At this concentration, DMSO had no effect on cellular proliferation or viability.
(§2) The viability of cells were determined using an MTT assay (Sigma-Aldrich) according to previously established methods. The optical density of soluble MTT was measured at λ = 570 nm, subtracting the λ = 690 nm background using a Tecan Infinite 200M plate reader (Tecan Group, Männedorf, Switzerland). The viability or proliferation of experimental groups was expressed as a percentage of the untreated controls (100%).
(§3) SigmaStat for Windows 3.5 (Systat Software, San Jose, CA, USA) statistical software package was utilized to analyze results. The data are expressed as the mean ± SD of a given number of experiments. Statistical significance was determined using a one-way ANOVA with a Bonferroni post-hoc test or Student’s t-test. The results were considered to be statistically significant when p < 0.05. The IC50 values were calculated using CalcuSyn 2.0 software (Biosoft, Cambridge, UK). Cell cycle analysis was evaluated using MultiCycle AV Software (Phoenix Flow Systems, San Diego, CA, USA).

[2] = Viability (viabilita) used to normalise caspase activity; type: cell-based, human; details: human, MCF-7 cells, kontrola = 100;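 note: compound tested at 100 nM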
Description: Supplement pone.0139929.s002.zip/caspases activity.xlsx, sheet "results_viability"

[3] = tested on: HL-60 human promyelocytic leukemia cells; test: MTT cytotoxicity assay, HL-60 cells; type: cell-based; details: for IC50: MTT
Procedure: as §1, §2, §3

caspase 9 = test: Caspase activity, luminescent kit, caspase 9; type: cell-based, human; details: for Caspase 9 activity, % of the control: 100 nM, MCF-7, corrected for viability; for kaspáza 9, průměry (means of raw signal): mean of 4 experiments; for kaspáza 9, raw signal / kaspáza 9, signal / viabilita: individual experiments by date
Procedure: To assess the effect of the compounds on caspase activity, MCF-7 cells were incubated with 100 nM Bp4eT or its metabolites for 3, 24 or 72 h/37°C in 96-well plates, as described above. The cells were then lysed by adding 100 μL of cold lysis buffer (100 mM HEPES, 10 mM CHAPS, 10 mM D-L-dithiothreitol, pH 7.4) to 100 μL of medium in each well. Lysates were immediately frozen at -80°C. Thawed lysates were used to assess caspase activity using luminescent kits for caspases 3/7, 8 and 9 (Promega, Madison, WI, USA). The luminescence was measured using the Tecan Infinite 200M plate reader. Caspase activity in the experimental groups was corrected according to the cellular viability of each group and expressed as a percentage of activity of the untreated control (100%).

## CCNC(=S)NN=C(c1ccccc1)c1ccccn1 [Bp4eT, 2-benzoylpyridine 4-ethyl-3-thiosemicarbazone]
[1]; HCT116, 2 000 b/j, 3 nM, průměr (mean)
  MTT, relative to control (0 = 100): 82.64
[1]; HCT116, 2 000 b/j, 3 nM, single experiment (date)
  MTT, relative to control (0 = 100): 85.5357 and 81.1307 and 88.4648 and 76.4907 and 81.5651
[1]; HCT116, 2 000 b/j, 10 nM, průměr (mean)
  MTT, relative to control (0 = 100): 43.25
[1]; HCT116, 2 000 b/j, 10 nM, single experiment (date)
  MTT, relative to control (0 = 100): 46.7731 and 45.9842 and 47.2591 and 32.9751
[1]; HCT116, 2 000 b/j, 30 nM, průměr (mean)
  MTT, relative to control (0 = 100): 5.63
[1]; HCT116, 2 000 b/j, 100 nM, průměr (mean)
  MTT, relative to control (0 = 100): 2.50
[1]; HCT116, 2 000 b/j, single experiment (date)
  IC50: 7.8 nM and 8.77 nM and 5.93 nM
[1]; Homo sapiens, HCT-116, 72 h, HCT116, 72 h/37°C, mean ± SD, n ≥ 4
  IC50: 8 ± 1 nM
[1]; Homo sapiens, HCT-116, HCT116, 2 000 b/j, průměr (mean)
  IC50: 7.6 nM
[1]; Homo sapiens, HCT-116, HCT116, 2 000 b/j, single experiment (date)
  IC50: 7.89 nM
[2]; 3 hodiny
  viability at 3 h, 100 nM: 96.3%
[2]; 24 hodin
  viability at 24 h, 100 nM: 52.8%
[2]; 72 hodin
  viability at 72 h, 100 nM: 27.1%
[3]; 3T3/HL-60
  Therapeutic index, IC50 non-cancerous cells / IC50 neoplastic cells: 436.3
[3]; H9c2/HL-60
  Therapeutic index, IC50 non-cancerous cells / IC50 neoplastic cells: 174.7
[3]; HL-60, 10 000 b/j, 0.1 nM, průměr (mean)
  MTT, relative to control (0 = 100): 98.01
[3]; HL-60, 10 000 b/j, 0.1 nM, single experiment (date)
  MTT, relative to control (0 = 100): 96.1425 and 103.96 and 95.2755 and 95.4167 and 99.2528
[3]; HL-60, 10 000 b/j, 0.3 nM, průměr (mean)
  MTT, relative to control (0 = 100): 96.66
[3]; HL-60, 10 000 b/j, 0.3 nM, single experiment (date)
  MTT, relative to control (0 = 100): 99.4278 and 92.0645 and 96.8892 and 98.2749
[3]; HL-60, 10 000 b/j, 1 nM, průměr (mean)
  MTT, relative to control (0 = 100): 97.15
[3]; HL-60, 10 000 b/j, 1 nM, single experiment (date)
  MTT, relative to control (0 = 100): 95.2755 and 96.4389 and 98.8804 and 97.9877
[3]; HL-60, 10 000 b/j, 3 nM, průměr (mean)
  MTT, relative to control (0 = 100): 62.98
[3]; HL-60, 10 000 b/j, 3 nM, single experiment (date)
  MTT, relative to control (0 = 100): 50.186 and 52.1752 and 67.6874 and 81.8744
[3]; HL-60, 10 000 b/j, 10 nM, průměr (mean)
  MTT, relative to control (0 = 100): 3.98
[3]; HL-60, 10 000 b/j, 30 nM, průměr (mean)
  MTT, relative to control (0 = 100): 1.50
[3]; HL-60, 10 000 b/j, 100 nM, průměr (mean)
  MTT, relative to control (0 = 100): 1.69
[3]; HL-60, 10 000 b/j, single experiment (date), read-out: IC50 měřené
  IC50: 2.84 nM and 3.65 nM and 4.08 nM
[3]; Homo sapiens, HL-60, 72 h, HL-60, 72 h/37°C, mean ± SD, n ≥ 4, read-out: IC50
  IC50: 3 ± 1 nM
[3]; Homo sapiens, HL-60, HL-60, 10 000 b/j, průměr (mean), read-out: IC50 měřené
  IC50: 3.48 nM
[3]; Homo sapiens, HL-60, HL-60, 10 000 b/j, single experiment (date), read-out: IC50 měřené
  IC50: 3.35 nM
Caspase 9; 24 h
  Caspase 9 activity, % of the control: 125%
Caspase 9; 72 h
  Caspase 9 activity, % of the control: 249%
Caspase 9; 3 hodiny (3 h), % of control
  kaspáza 9, % kontroly: 104.85%
Caspase 9; 3 hodiny (3 h)
  kaspáza 9, průměry (means of raw signal): 3805.38
Caspase 9; 3 hodiny
  kaspáza 9, raw signal: 6578.5 and 2900.5 and 3521 and 2221.5
Caspase 9; 3 hodiny, mean
  kaspáza 9, raw signal, průměry: 3805.38
Caspase 9; 3 hodiny, mean, normalised to viability
  kaspáza 9, % kontroly: 111.23 % kontroly
Caspase 9; 3 hodiny, normalised to viability
  kaspáza 9, signal / viabilita: 68.2861 and 30.1078 and 36.5487 and 23.0596
Caspase 9; 3 hodiny, normalised to viability, mean
  kaspáza 9, signal / viabilita, průměry: 39.5005
Caspase 9; 24 hodin (24 h), % of control
  kaspáza 9, % kontroly: 66.84%
Caspase 9; 24 hodin (24 h)
  kaspáza 9, průměry (means of raw signal): 2704
Caspase 9; 24 hodin
  kaspáza 9, raw signal: 3466.5 and 1743.5 and 3244.5 and 2361.5
Caspase 9; 24 hodin, mean
  kaspáza 9, raw signal, průměry: 2704
Caspase 9; 24 hodin, mean, normalised to viability
  kaspáza 9, % kontroly: 124.96 % kontroly
Caspase 9; 24 hodin, normalised to viability
  kaspáza 9, signal / viabilita: 65.5914 and 32.9897 and 61.3908 and 44.6831
Caspase 9; 24 hodin, normalised to viability, mean
  kaspáza 9, signal / viabilita, průměry: 51.1638
Caspase 9; 72 hodin (72 h), % of control
  kaspáza 9, % kontroly: 66.22%
Caspase 9; 72 hodin (72 h)
  kaspáza 9, průměry (means of raw signal): 14621.1
Caspase 9; 72 hodin
  kaspáza 9, raw signal: 22930.5 and 14080 and 11064.5 and 10409.5
Caspase 9; 72 hodin, mean
  kaspáza 9, raw signal, průměry: 14621.1
Caspase 9; 72 hodin, mean, normalised to viability
  kaspáza 9, % kontroly: 249.26 % kontroly
Caspase 9; 72 hodin, normalised to viability
  kaspáza 9, signal / viabilita: 846.456 and 519.749 and 408.435 and 384.256
Caspase 9; 72 hodin, normalised to viability, mean
  kaspáza 9, signal / viabilita, průměry: 539.724
